Reference: ChEMBL document CHEMBL1201862, “PubChem BioAssay data set” (2004)
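Growth conditions: 96-well plates. Treatment: test compound, 48 hours, 5 concentrations. Analysis: linear interpolation between bracketing concentrations; unreached endpoints set to highest concentration. GI50: concentration for 50% inhibition of growth.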 The source made the active and inactive calls. Rule as the data show it: active = GI50 up to about 1.1 µM and inactive = higher.

How the values were obtained:
Assay in all cases: inhibition of tumour cell growth, NCI panel, 48 h
[1] = tested on: NCI-H460
[2] = tested on: A549
[3] = tested on: 786-0
[4] = tested on: HL-60
[5] = tested on: CAKI-1
[6] = tested on: KM-20L2
[7] = tested on: SF-268
[8] = tested on: M14
[9] = tested on: LXFL 529
[10] = tested on: HOP-62
[11] = tested on: SF-539
[12] = tested on: HT-29
[13] = tested on: NCI-H23
[14] = tested on: SNB-75
[15] = tested on: A498
[16] = tested on: NCI-H226
[17] = tested on: BT-549
[18] = tested on: MDA-MB-435
[19] = tested on: MCF7
[20] = tested on: NCI/ADR-RES

Structure (SMILES) | GI50 [1] | GI50 [2] | GI50 [3] | GI50 [4] | GI50 [5] | GI50 [6] | GI50 [7] | GI50 [8] | GI50 [9] | GI50 [10] | GI50 [11] | GI50 [12] | GI50 [13] | GI50 [14] | GI50 [15] | GI50 [16] | GI50 [17] | GI50 [18] | GI50 [19] | GI50 [20]
COC(=O)C1=C(C(=O)OC)C2=S(SC3=C2CCCC3)S1 (stereo not drawn) | 28.1 µM (inactive) | 36.1 µM (inactive) | 4.11 µM (inactive) | 9.48 µM (inactive) | 20 µM (inactive) | 24.6 µM (inactive) | 37.6 µM (inactive) | 24.8 µM (inactive) | 5.05 µM (inactive) | > 100 µM (inactive) | 25.1 µM (inactive) | 18.7 µM (inactive) | 24.1 µM (inactive) | 12.1 µM (inactive) | – | – | – | – | – | –
[O-]/[N+](=C\c1ccccc1)[C@H](COCc1ccccc1)c1ccccc1 | > 100 µM (inactive) | 51.6 µM (inactive) | > 100 µM (inactive) | 25.2 µM (inactive) | – | > 100 µM (inactive) | 55.2 µM (inactive) | – | > 100 µM (inactive) | > 100 µM (inactive) | > 100 µM (inactive) | 71 µM (inactive) | 4.45 µM (inactive) | 74.3 µM (inactive) | > 100 µM (inactive) | – | – | – | – | –
Cc1ccc(Nc2nc(C)c(C(/C=C/c3ccc4c(c3)OCO4)=N/Nc3ccc([N+](=O)[O-])cc3[N+](=O)[O-])s2)c([N+](=O)[O-])c1 | 41 µM (inactive) | 45.8 µM (inactive) | 91.2 µM (inactive) | 21.7 µM (inactive) | 25.1 µM (inactive) | 33.9 µM (inactive) | 53.2 µM (inactive) | 61.7 µM (inactive) | 6.03 µM (inactive) | 32.8 µM (inactive) | 36.3 µM (inactive) | 50.6 µM (inactive) | 33.2 µM (inactive) | 56.8 µM (inactive) | – | 25 µM (inactive) | – | – | – | –
NCc1c(C(N)=O)ncn1Cc1ccccc1 | > 100 µM (inactive) | > 100 µM (inactive) | > 100 µM (inactive) | > 100 µM (inactive) | > 100 µM (inactive) | > 100 µM (inactive) | – | > 100 µM (inactive) | > 100 µM (inactive) | > 100 µM (inactive) | > 100 µM (inactive) | > 100 µM (inactive) | > 100 µM (inactive) | > 100 µM (inactive) | > 100 µM (inactive) | – | – | – | – | –
Nc1ccc(C(=O)N/C(=C\c2ccc3c(c2)OCO3)c2nc3ccc4c(c3[nH]2)C(=O)c2ccccc2C4=O)cc1 | 26.4 µM (inactive) | 21.1 µM (inactive) | 21.2 µM (inactive) | – | 14.7 µM (inactive) | 59.6 µM (inactive) | 12.4 µM (inactive) | 37.8 µM (inactive) | 30.5 µM (inactive) | 36.8 µM (inactive) | 21.6 µM (inactive) | 40.6 µM (inactive) | 14.4 µM (inactive) | 19.9 µM (inactive) | 14.4 µM (inactive) | – | – | – | – | –
CC(=O)NNc1nc(C)c(C(=O)NNC(=O)C(=O)Nc2ccc(Cl)c([N+](=O)[O-])c2)s1 | > 100 µM (inactive) | 85.5 µM (inactive) | 50 µM (inactive) | 39 µM (inactive) | > 100 µM (inactive) | > 100 µM (inactive) | 35.8 µM (inactive) | > 100 µM (inactive) | 27.2 µM (inactive) | > 100 µM (inactive) | 53 µM (inactive) | > 100 µM (inactive) | 37.7 µM (inactive) | – | – | > 100 µM (inactive) | – | – | – | –
Cc1ccc(C(=O)Nc2ccccc2)cc1/N=N/N(C)C | > 100 µM (inactive) | > 100 µM (inactive) | 21 µM (inactive) | – | > 100 µM (inactive) | > 10 µM (inactive) | > 100 µM (inactive) | > 100 µM (inactive) | > 100 µM (inactive) | > 100 µM (inactive) | > 100 µM (inactive) | > 100 µM (inactive) | > 100 µM (inactive) | – | – | – | – | – | – | –
CCC(=O)OC[n+]1ccc2c(C)c3[nH]c4ccc(OC)cc4c3c(C)c2c1 | 0.0199 µM (active) | 0.135 µM (active) | 0.176 µM (active) | 1.66 µM (inactive) | 0.188 µM (active) | 0.117 µM (active) | 0.24 µM (active) | 0.333 µM (active) | 0.0582 µM (active) | – | 0.243 µM (active) | 0.0568 µM (active) | 0.22 µM (active) | 0.434 µM (active) | 1.06 µM (active) | 0.348 µM (active) | – | – | – | –
COC(=O)C1N=CSCC1(C)O (stereo not drawn) | > 100 µM (inactive) | > 100 µM (inactive) | > 100 µM (inactive) | > 100 µM (inactive) | > 100 µM (inactive) | > 100 µM (inactive) | > 100 µM (inactive) | > 100 µM (inactive) | – | > 100 µM (inactive) | > 100 µM (inactive) | > 100 µM (inactive) | > 100 µM (inactive) | > 100 µM (inactive) | > 100 µM (inactive) | > 100 µM (inactive) | – | – | – | –
COC1(OC)c2ccccc2C2(O)c3ccccc3C(=O)C12 (stereo not drawn) | 26.4 µM (inactive) | – | 52.6 µM (inactive) | 13.5 µM (inactive) | – | 40.6 µM (inactive) | > 100 µM (inactive) | 23.9 µM (inactive) | 20.7 µM (inactive) | – | 61 µM (inactive) | 55.5 µM (inactive) | 47.4 µM (inactive) | 29.3 µM (inactive) | – | 27 µM (inactive) | – | – | – | –
CCOC(=O)NC(=O)c1cn(CCN2CCN(C(=O)CCCCCCCCCCNc3ncnc4[nH]cnc34)CC2)c(=O)[nH]c1=O | > 100 µM (inactive) | > 100 µM (inactive) | > 100 µM (inactive) | 46.7 µM (inactive) | 79.8 µM (inactive) | > 100 µM (inactive) | 13.1 µM (inactive) | > 100 µM (inactive) | 39.8 µM (inactive) | > 100 µM (inactive) | > 100 µM (inactive) | > 100 µM (inactive) | > 100 µM (inactive) | > 100 µM (inactive) | – | > 100 µM (inactive) | – | – | – | –
O=C(Nc1ccccc1)c1ccc(Cl)c([N+](=O)[O-])c1 | 6.31 µM (inactive) | 20.2 µM (inactive) | 4.85 µM (inactive) | – | 6.05 µM (inactive) | 13.5 µM (inactive) | > 10 µM (inactive) | 10.2 µM (inactive) | 3.78 µM (inactive) | 32.7 µM (inactive) | 21.4 µM (inactive) | 13.4 µM (inactive) | 23 µM (inactive) | 13.8 µM (inactive) | 21.8 µM (inactive) | 25.2 µM (inactive) | – | – | – | –
COc1ccc(/C=C/C(=O)C(C)(C)CN2CCCCC2)cc1 | 18.7 µM (inactive) | 26.8 µM (inactive) | 16 µM (inactive) | 18.6 µM (inactive) | – | 20.2 µM (inactive) | 22.1 µM (inactive) | 18.2 µM (inactive) | 15.5 µM (inactive) | 32.2 µM (inactive) | 19.8 µM (inactive) | 16.6 µM (inactive) | 24.5 µM (inactive) | 12.4 µM (inactive) | 16.9 µM (inactive) | 20.9 µM (inactive) | – | – | – | –
Cc1ccc(S(=O)(=O)N/N=C(\C(=O)Nc2cccc([N+](=O)[O-])c2)c2nc3ccc([N+](=O)[O-])cc3nc2O)cc1 | 33.5 µM (inactive) | 31.8 µM (inactive) | 61.9 µM (inactive) | – | 23.2 µM (inactive) | – | 48.5 µM (inactive) | > 100 µM (inactive) | 18.6 µM (inactive) | 81.8 µM (inactive) | 24.6 µM (inactive) | 53 µM (inactive) | 72.4 µM (inactive) | – | 17.1 µM (inactive) | 37.2 µM (inactive) | – | – | – | –
C=C(C)C1CCC2=CC(CC3(C)OC3C3=CC(C(=O)OC)=C(C1)O3)OC2=O (stereo not drawn) | > 100 µM (inactive) | > 100 µM (inactive) | > 100 µM (inactive) | > 10 µM (inactive) | > 100 µM (inactive) | – | > 100 µM (inactive) | > 100 µM (inactive) | – | > 100 µM (inactive) | 73.3 µM (inactive) | > 100 µM (inactive) | > 100 µM (inactive) | 56.2 µM (inactive) | > 100 µM (inactive) | > 100 µM (inactive) | > 100 µM (inactive) | > 100 µM (inactive) | > 100 µM (inactive) | > 100 µM (inactive)
CCCCCCCC/C=C\CCCCCCC/C=C1\C[C@](/C=C/C(=O)OC)(CO)OC1=O | 3.44 µM (inactive) | 4.3 µM (inactive) | 1.33 µM (inactive) | 2.15 µM (inactive) | 1.29 µM (inactive) | – | 1.96 µM (inactive) | 1.62 µM (inactive) | – | 1.86 µM (inactive) | 1.78 µM (inactive) | 5.08 µM (inactive) | 3.71 µM (inactive) | 1.92 µM (inactive) | 8.34 µM (inactive) | 2.61 µM (inactive) | 2.33 µM (inactive) | 1.25 µM (inactive) | 3.28 µM (inactive) | 3.47 µM (inactive)
CCOC(=O)c1c[nH]c2cc3c(cc2c1=O)CCS3 | > 100 µM (inactive) | > 100 µM (inactive) | > 100 µM (inactive) | 91 µM (inactive) | > 100 µM (inactive) | – | > 100 µM (inactive) | > 100 µM (inactive) | – | > 100 µM (inactive) | > 100 µM (inactive) | 61.2 µM (inactive) | > 100 µM (inactive) | > 100 µM (inactive) | > 100 µM (inactive) | 50.4 µM (inactive) | > 100 µM (inactive) | > 100 µM (inactive) | > 100 µM (inactive) | > 100 µM (inactive)
COC(=O)NC(Cc1ccccc1)NC(=O)OC(C)(C)C (stereo not drawn) | > 100 µM (inactive) | > 100 µM (inactive) | > 100 µM (inactive) | > 100 µM (inactive) | > 100 µM (inactive) | – | > 100 µM (inactive) | > 100 µM (inactive) | – | > 100 µM (inactive) | > 100 µM (inactive) | > 100 µM (inactive) | > 100 µM (inactive) | > 100 µM (inactive) | > 100 µM (inactive) | > 100 µM (inactive) | > 100 µM (inactive) | > 100 µM (inactive) | > 100 µM (inactive) | > 100 µM (inactive)
